# Measured values reported in patent US5340829A, “Immunoregulatory agents” (priority 1992, dated 1994).
# Entries after “also recorded” stand apart in the source; their conditions may differ. Read-outs that look alike come from different tables or passages of the source.
# Assays:
# [1] = system: swelling of popliteal lymph nodes; assay: Popliteal lymph node assay (Experiment 20); format: in vivo; settings: Balb C mice injected in the foot pad with cells from C57BL6 mice
# Protocol: In vivo, popliteal lymph node assays were conducted on normal Balb C mice.
# Mouse peritoneal cells = assay: 3H-thymidine incorporation in peritoneal cells, with or without LPS (Experiment 15); format: cell-based; settings: concentrations as high as 10^-6 M/L; control cells or cells stimulated using LPS
# [2] = system: spleen cells stimulated with Concanavalin A (Con A); assay: Spleen cell proliferative response to Con A after oral sorbinil (Experiment 8); format: in vivo, mice; settings: for activation at 11 mg/kg/day: Mus musculus, read-out: Enhancement of proliferative response
# Protocol: The proliferative response of T lymphocytes to the Con A mitogen requires the obligatory participation of adherent accessory cells, which are presumed to be macrophages.
# Mice received sorbinil orally for one, two, or three days prior to sacrifice. The dosage was 11 mg/kg per day. Control mice received the buffer vehicle alone. Mice from these four groups were sacrificed and their spleens harvested. The spleens were teased into single-cell suspensions that were cultured with different concentrations of Con A for three or four days. One microcurie of tritiated thymidine was added to each culture 18 hours before the cultures were terminated. Incorporation of the tritiated thymidine into cellular DNA was measured by using a liquid scintillation counter. The results of this experiment are presented in FIGS. 20 and 21 and are summarized as follows: […]
# Normal mouse thymocytes = assay: 3H-thymidine incorporation, PHA plus IL-1 stimulated thymocytes (Experiment 12); format: cell-based; settings: concentrations as high as 10^-6 M/L; PHA in the presence of preformed IL-1
# [3] = system: primary response to sheep red blood cells (SRBC); assay: Direct plaque forming cell (PFC) assay, primary response to sheep red blood cells (Experiment 6); format: in vivo, C57BL/6J mice
# Protocol: A control group received only the buffer vehicle (carbonate buffer, 0.01M, pH 9.5). Six hours after the first dose, the mice received 0.1 ml of a 20% SRBC solution intraperitoneally. The mice were sacrificed four days later. The spleens were harvested, and the spleen cells were tested in a modified Cunningham plaque assay. Cunningham, A. V., Nature (London) 207:1106 1965.
# [4] = 11 mg/kg orally daily, four days after SRBC
compound,measurement,setting,value
"O=C1NC(=O)[C@@]2(CCOc3ccc(F)cc32)N1 [Sorbinil, 4(S)-2,3-dihydro-6-fluorospiro-(4H-1-benzopyran-4,4'-imidazolidine)-2',5'-dione]",Swelling of popliteal lymph nodes,[1],no effect
same,3H-thymidine incorporation,Mouse peritoneal cells,no significant effect
same,activation at 11 mg/kg/day,[2]; 72 h,9%
same,activation at 11 mg/kg/day,[2]; 96 h,3 to 30%
same,Reduction of proliferative response,"[2]; cultures harvested day four, sorbinil three days prior to harvest",25-58%
same,Reduction of proliferative response,"[2]; cultures harvested day four, sorbinil two days prior to sacrifice",5 to 18%
same,Reduction of proliferative response,"[2]; cultures harvested day three, sorbinil one day prior to sacrifice, 1 μmg of Con A/ml",25%
same,Reduction of proliferative response,"[2]; cultures harvested day three, sorbinil one day prior to sacrifice, Con A 2 μmg/ml",18%
same,Reduction of proliferative response,"[2]; cultures harvested day three, sorbinil three days prior to sacrifice, Con A 2 μmg/ml",30%
same,Reduction of proliferative response,"[2]; cultures harvested day three, sorbinil three days prior to sacrifice, Con A 5 μmg/ml",27%
same,Reduction of proliferative response,"[2]; cultures harvested day three, sorbinil two days prior to sacrifice, 1 μmg of Con A/ml",22%
same,Reduction of proliferative response,"[2]; cultures harvested day three, sorbinil two days prior to sacrifice, Con A 2 μmg/ml",11%
same,Proliferative response to the mitogen Con A (in words),[2]; sorbinil 11 mg/kg per day orally prior to sacrifice,reduced proliferative response; also recorded: inhibits the proliferative response of T-cells
same,Kinetics of the proliferative response of spleen cells to Con A,"[2]; sorbinil one, two, or three days prior to spleen cell harvesting",not affected
same,Dose response pattern to Con A,[2]; sorbinil-treated vs buffer-treated mice,similar
same,Incorporation of 3H-thymidine,Normal mouse thymocytes,no effect
same,Direct plaques,[3]; [4],372±62 plaques per 2×10^5 cells
same,Increase in spleen cellularity compared to buffer-treated control group,[3]; [4],46%
same,Increase in the number of direct plaques (IgM antibody secreting cells) compared to buffer control,[3]; [4],94%
same,PFC on a per spleen basis,[3]; [4],"393,000±12,617 PFC/spleen"
same,Spleen cellularity,[3]; [4],2.12±0.26×10^8 cells/spleen
same,Qualitative appearance of plaques,[3]; spleen cells from sorbinil-treated mice vs buffer control,"much smaller, more irregularly shaped, and less distinct"
